Patent publication US8754073B2, “Substituted piperazino-dihydrothienopyrimidines” (Boehringer Ingelheim International GmbH, priority 2007, dated 2014)
Counter-ions that a name gives are not always drawn.

Target: PDE4B (Homo sapiens, UniProt Q07343)
Experiment: Scintillation Proximity Assay (SPA) of PDE4B enzyme activity ([H3]-cAMP cleavage)
Type: biochemical
Details: test substance 1 μM; one-hour incubation of [H3]-cAMP with PDE4B enzyme at 30° C.
Method: The inhibitions (in %) at 1 μM of the individual Example substances are given in the following Table of Examples and were determined as follows:
The Scintillation Proximity Assay (SPA) (GE Healthcare, No. TRKQ7090) was carried out by using the different affinities of cyclic 3′-5′-adenosinemonophosphate (cAMP, low affinity) and linear 5′-adenosinemonophosphate (AMP, high affinity) for yttrium silicate scintillator beads. The cAMP specific phosphodiesterase (PDE) PDE4B cleaves the 3′-phosphoester bond of tritium-labelled [H3]-cAMP to form [H3]-5′-AMP. This [H3]-AMP accumulates on the scintillator beads because of its higher affinity for them and causes scintillation events (flashes of light) which are measured in a Wallac Microbeta Scintillation Counter.
The experiment starts with a one-hour incubation of [H3]-cAMP with the PDE4B enzyme in assay buffer at 30° C., in each case once with the Example substance to be tested (in a concentration of 1 μM) and once without the Example substance to be tested.
After this incubation, the reaction is stopped by the addition of the beads. The beads have an opportunity to settle in the next 45 minutes, then the measurement is carried out in the Scintillation Counter. If the substance is capable of inhibiting the enzymatic activity of the PDE4B, less [H3]-AMP is produced during the incubation phase and fewer scintillation events can be measured.

PDE4B, sequence (Q07343 whole entry, species assumed): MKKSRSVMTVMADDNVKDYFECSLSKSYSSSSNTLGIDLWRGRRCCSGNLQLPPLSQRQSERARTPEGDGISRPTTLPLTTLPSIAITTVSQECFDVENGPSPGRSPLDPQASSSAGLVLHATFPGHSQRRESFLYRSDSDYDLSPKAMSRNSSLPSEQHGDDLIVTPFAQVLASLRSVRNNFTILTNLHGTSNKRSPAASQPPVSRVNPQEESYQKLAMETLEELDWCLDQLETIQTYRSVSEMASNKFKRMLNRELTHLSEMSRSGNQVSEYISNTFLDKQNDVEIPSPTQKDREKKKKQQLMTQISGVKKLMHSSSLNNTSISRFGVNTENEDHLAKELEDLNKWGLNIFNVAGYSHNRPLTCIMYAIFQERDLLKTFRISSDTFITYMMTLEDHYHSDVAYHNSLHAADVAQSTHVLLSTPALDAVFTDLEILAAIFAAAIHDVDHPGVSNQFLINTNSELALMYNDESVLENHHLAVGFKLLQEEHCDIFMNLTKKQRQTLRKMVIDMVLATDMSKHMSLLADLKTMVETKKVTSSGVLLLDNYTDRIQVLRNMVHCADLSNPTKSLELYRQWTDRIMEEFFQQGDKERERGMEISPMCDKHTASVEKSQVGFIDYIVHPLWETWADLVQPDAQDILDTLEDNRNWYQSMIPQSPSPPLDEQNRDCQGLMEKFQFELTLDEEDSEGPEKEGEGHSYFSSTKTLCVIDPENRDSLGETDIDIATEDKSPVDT

| SMILES | inhibition at 1 µM [%] |
| --- | --- |
| [O-][S+]1CCc2nc(N3CCC(c4noc5ccc(F)cc45)CC3)nc(NC3(CO)CC3)c21 (centres unmarked) [Example 106] | 95 |
| CCc1[nH]c2ccc(F)cc2c1C1CCN(c2nc3c(c(NC4CCOCC4)n2)[S+]([O-])CC3)CC1 (centres unmarked) [Example 67] | 93 |
| CN1C[C@@H](Nc2nc(N3CCC(c4ccc(C#N)cc4)CC3)nc3c2[S+]([O-])CC3)CCC1=O (some centres unmarked) [Example 49] | 96 |
| CN1C[C@@H](Nc2nc(N3CCC4(CC3)NC(=O)Nc3ccccc34)nc3c2[S+]([O-])CC3)CCC1=O (some centres unmarked) [Example 51] | 83 |
| [O-][S+]1CCc2nc(N3CCC(O)(c4cc(F)cc(F)c4)CC3)nc(NC3(CO)CC3)c21 (centres unmarked) [Example 33] | 95 |
| COC(=O)c1ccc(C2CCN(c3nc4c(c(NC5(CO)CC5)n3)[S+]([O-])CC4)CC2)cc1 (centres unmarked) [Example 103] | 95 |
| CC(C)[C@H](CO)Nc1nc(N2CCC(c3cccc(Cl)c3)CC2)nc2c1[S+]([O-])CC2 (some centres unmarked) [Example 24] | 94 |
| Cc1noc(C2CCN(c3nc4c(c(N[C@@H](CO)C(C)C)n3)[S+]([O-])CC4)CC2)n1 (some centres unmarked) [Example 23] | 85 |
| N#Cc1cccc(C2CCN(c3nc4c(c(NC5CCOCC5)n3)[S+]([O-])CC4)CC2)c1 (centres unmarked) [Example 123] | 94 |
| [O-][S+]1CCc2nc(N3CCC(c4nc(-c5ccncc5)no4)CC3)nc(Nc3cccc(F)c3)c21 (centres unmarked) [Example 147, (3-Fluorophenyl)-{5-Oxo-2-[4-(3-Pyridin-4-Yl-[1,2,4]Oxadiazol-5-Yl)-Piperidin-1-Yl]-6,7-Dihydro-5H-5λ^4-Thieno[3,2-d]Pyrimidin-4-Yl}-Amine Trifluoroacetate] | 95 |
| CC(C)[C@H](CO)Nc1nc(N2CCC(c3nc(-c4cccnc4)no3)CC2)nc2c1[S+]([O-])CC2 (some centres unmarked) [Example 162] | 92 |
| CC(C)(O)[C@H](Nc1nc(N2CCC(c3ccc(Cl)cc3)CC2)nc2c1[S+]([O-])CC2)c1ccc(F)cc1 (stereo partly drawn) [Example 4, (R)-1-{2-[4-(4-chlorophenyl)-piperidin-1-yl]-5-oxo-6,7-dihydro-5H-5λ^4-thieno[3,2-d]pyrimidin-4-ylamino}-1-(4-fluorophenyl)-2-methylpropan-2-ol] | 91 |
| CC(C)[C@H](CO)Nc1nc(N2CCC(c3ccc(Cl)cc3)CC2)nc2c1[S+]([O-])CC2 (stereo partly drawn) [Example 1, (R)-2-{2-[4-(4-chlorophenyl)-piperidin-1-yl]-5-oxo-6,7-dihydro-5H-5λ^4-thieno[3,2-d]pyrimidin-4-ylamino}-3-methylbutan-1-ol] | 93 |
| CC(C)[C@H](CO)Nc1nc(N2CCC(c3noc4ccc(F)cc34)CC2)nc2c1[S+]([O-])CC2 (some centres unmarked) [Example 153] | 95 |
| CN1C[C@@H](Nc2nc(N3CCC(C#N)(c4ccccc4)CC3)nc3c2[S+]([O-])CC3)CCC1=O (stereo partly drawn) [Example 55, 1-[4-((S)-1-Methyl-6-Oxopiperidin-3-Ylamino)-5-Oxo-6,7-Dihydro-5H-5λ^4-Thieno[3,2-d]Pyrimidine-2-Yl]-4-Phenylpiperidine-4-Carbonitrile] | 96 |
| CC(C)[C@H](CO)Nc1nc(N2CCC3(CC2)OCc2ccccc23)nc2c1[S+]([O-])CC2 (some centres unmarked) [Example 156] | 64 |
| CC(C)[C@H](CO)Nc1nc(N2CCC(c3nc(-c4ccncc4)no3)CC2)nc2c1[S+]([O-])CC2 (stereo partly drawn) [Example 163, (R)-3-Methyl-2-{5-Oxo-2-[4-(3-Pyridin-4-Yl-[1,2,4]Oxadiazol-5-Yl)-Piperidin-1-Yl]-6,7-Dihydro-5H-5λ^4-Thieno[3,2-d]Pyrimidin-4-Ylamino}-Butan-1-Ol Trifluoroacetate] | 92 |
| [O-][S+]1CCc2nc(N3CCC(c4ccc(C(F)(F)F)cc4)CC3)nc(NC3(CO)CC3)c21 (centres unmarked) [Example 95, (1-{5-Oxo-2-[4-(4-Trifluoromethylphenyl)-Piperidin-1-Yl]-6,7-Dihydro-5H-5λ^4-Thieno[3,2-d]Pyrimidin-4-Ylamino}-Cyclopropyl)-Methanol] | 93 |
| [O-][S+]1CCc2nc(N3CCC(c4cc(-c5ccco5)n[nH]4)CC3)nc(NC3CCOCC3)c21 (centres unmarked) [Example 130] | 96 |
| [O-][S+]1CCc2nc(N3CCC(c4cc(-c5ccco5)n[nH]4)CC3)nc(NC3(CO)CC3)c21 (centres unmarked) [Example 114] | 96 |
| [O-][S+]1CCc2nc(N3CCC(c4nnc(-c5ccc(F)cc5)o4)CC3)nc(NC3(CO)CC3)c21 (centres unmarked) [Example 112] | 95 |
| Cc1cccc(C2CCN(c3nc4c(c(NC5CCOCC5)n3)[S+]([O-])CC4)CC2)c1 (centres unmarked) [Example 7] | 93 |
| N#CC1(c2ccccc2)CCN(c2nc3c(c(NC4(CO)CC4)n2)[S+]([O-])CC3)CC1 (centres unmarked) [Example 40] | 94 |

Same assay, conditions: test substance 1 μM; one-hour incubation with [H3]-cAMP at 30° C.

| SMILES | inhibition at 1 µM [%] |
| --- | --- |
| O=C(c1ccc(F)cc1)C1(c2ccc(F)cc2)CCN(c2nc3c(c(NC4CCOCC4)n2)[S+]([O-])CC3)CC1 (centres unmarked) [Example 297] | 73 |
| COCC(=O)NCC1(c2ccccc2)CCN(c2nc3c(c(N[C@H]4CCC(=O)N(C)C4)n2)[S+]([O-])CC3)CC1 (some centres unmarked) [Example 202, 2-methoxy-N-{1-[4-(1-methyl-6-oxopiperidin-3-ylamino)-5-oxo-6,7-dihydro-5H-5λ^4-thieno[3,2-d]pyrimidin-2-yl]-4-phenylpiperidin-4-ylmethyl}-acetamide] | 96 |
| Cc1nn(C)cc1C(C)NC(=O)c1cccc(C2CCN(c3nc4c(c(NC5CCOCC5)n3)[S+]([O-])CC4)CC2)c1 (centres unmarked) [Example 251] | 90 |
| CN1C[C@@H](Nc2nc(N3CCC(CO)(c4ccc(Cl)cc4)CC3)nc3c2[S+]([O-])CC3)CCC1=O (some centres unmarked) [Example 246, 5-{2-[4-(4-Chlorophenyl)-4-Hydroxymethylpiperidin-1-Yl]-5-Oxo-6,7-Dihydro-5H-5λ^4-Thieno[3,2-d]Pyrimidin-4-Ylamino}-1-Methyl Piperidin-2-One] | 93 |
| [O-][S+]1CCc2nc(N3CCC(c4nc5ccc(Cl)cc5[nH]4)CC3)nc(NC3CCOCC3)c21 (centres unmarked) [Example 191] | 96 |
| Cn1nc(C2CCN(c3nc4c(c(NC5CCOCC5)n3)[S+]([O-])CC4)CC2)cc1-c1ccco1 (centres unmarked) [Example 198, {2-[4-(5-furan-2-yl-1-methyl-1H-pyrazol-3-yl)-piperidin-1-yl]-5-oxo-6,7-dihydro-5H-5λ^4-thieno[3,2-d]pyrimidin-4-yl}-(tetrahydropyran-4-yl)-amine] | 94 |
| [O-][S+]1CCc2nc(N3CCC(O)(c4ccc(Cl)cc4)CC3)nc(NC3(CO)CC3)c21 (centres unmarked) [Example 289] | 81 |
| COC(=O)c1ccc(OC2CCN(c3nc4c(c(NC5CCOCC5)n3)[S+]([O-])CC4)CC2)cc1 (centres unmarked) [Example 176] | 93 |
| CN1CCC(N(C)C(=O)c2ccc(C3CCN(c4nc5c(c(NC6CCOCC6)n4)[S+]([O-])CC5)CC3)cc2)CC1 (centres unmarked) [Example 228] | 94 |
| [O-][S+]1CCc2nc(N3CCC(c4nc5cccnc5[nH]4)CC3)nc(NC3CCOCC3)c21 (centres unmarked) [Example 207] | 95 |
| CN(CC1(c2ccccc2)CCN(c2nc3c(c(Nc4cccc(F)c4)n2)[S+]([O-])CC3)CC1)S(C)(=O)=O (centres unmarked) [Example 332] | 93 |
| CN1C[C@@H](Nc2nc(N3CCC(C(=O)N4CCOCC4)(c4ccccc4)CC3)nc3c2[S+]([O-])CC3)CCC1=O (some centres unmarked) [Example 252, 1-Methyl-5-{2-[4-(Morpholine-4-Carbonyl)-4-Phenyl Piperidin-1-Yl]-5-Oxo-6,7-Dihydro-5H-5λ^4-Thieno[3,2-d]Pyrimidin-4-Ylamino}-Piperidin-2-One] | 92 |
| CC(C)c1noc(C2CCN(c3nc4c(c(N[C@H]5CCC(=O)N(C)C5)n3)[S+]([O-])CC4)CC2)n1 (some centres unmarked) [Example 189] | 97 |
| Cc1nn(C)cc1CNC(=O)c1ccc(C2CCN(c3nc4c(c(NC5CCOCC5)n3)[S+]([O-])CC4)CC2)cc1 (centres unmarked) [Example 262] | 94 |
| [O-][S+]1CCc2nc(N3CCC(Oc4ccccn4)CC3)nc(NC3CCOCC3)c21 (centres unmarked) [Example 173] | 95 |
| NC1CC1Nc1nc(N2CCC(c3ccc(Cl)cc3)CC2)nc2c1[S+]([O-])CC2 (centres unmarked) [Example 233, N-{2-[4-(4-Chlorophenyl)-Piperidin-1-Yl]-5-Oxo-6,7-Dihydro-5H-5λ^4-Thieno[3,2-d]Pyrimidin-4-Yl}-Cyclopropan-1,2-Diamine] | 93 |
| [O-][S+]1CCc2nc(N3CCC(COCc4ccccc4)(c4ccc(Cl)cc4)CC3)nc(NC3CCOCC3)c21 (centres unmarked) [Example 310] | 92 |
| Cc1nn(C)cc1CNC(=O)c1cccc(C2CCN(c3nc4c(c(NC5CCOCC5)n3)[S+]([O-])CC4)CC2)c1 (centres unmarked) [Example 259] | 92 |
| CN(C)CC(=O)NCC1(c2ccccc2)CCN(c2nc3c(c(N[C@H]4CCC(=O)N(C)C4)n2)[S+]([O-])CC3)CC1 (some centres unmarked) [Example 206, 2-dimethylamino-N-{1-[4-(1-methyl-6-oxopiperidin-3-ylamino)-5-oxo-6,7-dihydro-5H-5λ^4-thieno[3,2-d]pyrimidin-2-yl]-4-phenylpiperidin-4-ylmethyl}-acetamide] | 95 |
| [O-][S+]1CCc2nc(N3CCC(Oc4ccc(F)cc4)CC3)nc(NC3(CO)CC3)c21 (centres unmarked) [Example 167] | 91 |
| CN1C[C@@H](Nc2nc(N3CCC(Oc4ccc(F)cc4)CC3)nc3c2[S+]([O-])CC3)CCC1=O (some centres unmarked) [Example 169] | 92 |
